From patent publication US20250154686A1, “COMPOUND LIBRARY” (CHUGAI SEIYAKU KABUSHIKI KAISHA, priority 2021, published 2025)

Molecular target: T1, Bcl-2 protein (Recombinant Human Bcl-2 Protein) (Homo sapiens, UniProt P10415)
T1 construct: purchased Novus Biologicals NBP2-34889
Test: AS-MS evaluation of binding of the Example 4 mixture library (1200 compounds/well) to Bcl-2, ASMS ratio (%)
Conditions: AS-MS, Example 4 mixture library; for ASMS ratio (%) n = 1: Bcl-2, replicate n = 1; for ASMS ratio (%) n = 2: Bcl-2, replicate n = 2
Summary of the method: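 A pooled 1200-compound mixture (20 nM each final) was incubated with 20 μM recombinant human Bcl-2 in pH 7.4 Tris-HCl buffer with NaCl, Tween-20 and DTT for 1 h at 23° C. in the dark. Bound ligands were separated by spin-column SEC and measured by reverse-phase LC/MS; ASMS ratio (%) was calculated against protein-free unfiltered standard and protein-free SEC blank.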

T1 sequence (P10415 whole entry): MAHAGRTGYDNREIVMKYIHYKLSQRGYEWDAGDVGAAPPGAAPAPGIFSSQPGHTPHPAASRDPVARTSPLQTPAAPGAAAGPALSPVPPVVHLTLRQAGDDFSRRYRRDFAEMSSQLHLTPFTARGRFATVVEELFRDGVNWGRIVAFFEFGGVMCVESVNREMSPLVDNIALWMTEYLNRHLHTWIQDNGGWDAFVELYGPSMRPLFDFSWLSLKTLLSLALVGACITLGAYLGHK

ASMS ratio (%) n = 1 [%] | ASMS ratio (%) n = 2 [%] | SMILES
22.4 | 25. | CCOc1cncc(-c2ccc(CN3CCN(c4ccc(C(=O)NS(=O)(=O)c5ccc(NCCSc6ccccc6)c(C(F)(F)F)c5)nn4)CC3)cc2C)c1 [Compound B2R074-01, 6-[4-[[4-(5-ethoxypyridin-3-yl)-3-methylphenyl]methyl]piperazin-1-yl]-N-[4-(2-phenylsulfanylethylamino)-3-(trifluoromethyl)phenyl]sulfonylpyridazine-3-carboxamide]
8.6 | 0.0 | CCOc1cccc(-c2ccc(CN3CCN(c4ccc(C(=O)NS(=O)(=O)c5ccc(NCCSc6ccccc6)c(C(F)(F)F)c5)nn4)CC3)c(CC)c2)c1 [Compound B2R075-01, 6-[4-[[4-(3-Ethoxyphenyl)-2-ethylphenyl]methyl]piperazin-1-yl]-N-[4-(2-phenylsulfanylethylamino)-3-(trifluoromethyl)phenyl]sulfonylpyridazine-3-carboxamide]
3.9 | 19.7 | CCOc1cncc(-c2ccc(CN3CCN(c4ccc(C(=O)NS(=O)(=O)c5ccc(NCCSc6ccccc6)c(C(F)(F)F)c5)nn4)CC3)c(CC)c2)c1 [Compound B2R076-01]
0.0 | 0.0 | CCOc1cccc(-c2ccc(CN3CCN(c4ccc(C(=O)NS(=O)(=O)c5ccc(NCCSc6ccccc6)c(C(F)(F)F)c5)nn4)CC3)cc2F)c1 [Compound B2R077-01, 6-[4-[[4-(3-Ethoxyphenyl)-3-fluorophenyl]methyl]piperazin-1-yl]-N-[4-(2-phenylsulfanylethylamino)-3-(trifluoromethyl)phenyl]sulfonylpyridazine-3-carboxamide]
15.8 | 11.7 | CCOc1cncc(-c2ccc(CN3CCN(c4ccc(C(=O)NS(=O)(=O)c5ccc(NCCSc6ccccc6)c(C(F)(F)F)c5)nn4)CC3)cc2F)c1 [Compound B2R078-01, 6-[4-[[4-(5-Ethoxypyridin-3-yl)-3-fluorophenyl]methyl]piperazin-1-yl]-N-[4-(2-phenylsulfanylethylamino)-3-(trifluoromethyl)phenyl]sulfonylpyridazine-3-carboxamide]
16.7 | 21.2 | CCOc1cncc(-c2ccc(CN3CCN(c4ccc(C(=O)NS(=O)(=O)c5ccc(NCCSc6ccccc6)c(C(F)(F)F)c5)nn4)CC3)c(OC)c2)c1 [Compound B2R080-01, 6-[4-[[4-(5-Ethoxypyridin-3-yl)-2-methoxyphenyl]methyl]piperazin-1-yl]-N-[4-(2-phenylsulfanylethylamino)-3-(trifluoromethyl)phenyl]sulfonylpyridazine-3-carboxamide]
21.1 | −8.8 | CCOc1cccc(-c2cc(CN3CCN(c4ccc(C(=O)NS(=O)(=O)c5ccc(NCCSc6ccccc6)c(C(F)(F)F)c5)nn4)CC3)cc(OCC)c2)c1 [Compound B2R081-01]
0.0 | 0.0 | CCOc1cncc(-c2cc(CN3CCN(c4ccc(C(=O)NS(=O)(=O)c5ccc(NCCSc6ccccc6)c(C(F)(F)F)c5)nn4)CC3)cc(OCC)c2)c1 [Compound B2R082-01]
31.9 | −11.1 | CCOc1cccc(-c2cc(CN3CCN(c4ccc(C(=O)NS(=O)(=O)c5ccc(NCCSc6ccccc6)c(C(F)(F)F)c5)nn4)CC3)cc(OC(C)C)c2)c1 [Compound B2R083-01, 6-[4-[[3-(3-Ethoxyphenyl)-5-propan-2-yloxyphenyl]methyl]piperazin-1-yl]-N-[4-(2-phenylsulfanylethylamino)-3-(trifluoromethyl)phenyl]sulfonylpyridazine-3-carboxamide]
0.0 | 0.0 | CCOc1cncc(-c2cc(OC)c(CN3CCN(c4ccc(C(=O)NS(=O)(=O)c5ccc(NCCSc6ccccc6)c(C(F)(F)F)c5)nn4)CC3)c(OC)c2)c1 [Compound B2R086-01, 6-[4-[[4-(5-Ethoxypyridin-3-yl)-2,6-dimethoxyphenyl]methyl]piperazin-1-yl]-N-[4-(2-phenylsulfanylethylamino)-3-(trifluoromethyl)phenyl]sulfonylpyridazine-3-carboxamide]
3.8 | 7.1 | CCOc1cccc(-c2cc(CN3CCN(c4ccc(C(=O)NS(=O)(=O)c5ccc(NCCSc6ccccc6)c(C(F)(F)F)c5)nn4)CC3)cc(C(F)(F)F)c2)c1 [Compound B2R087-01]
35.3 | 13.1 | CCOc1cncc(-c2cc(CN3CCN(c4ccc(C(=O)NS(=O)(=O)c5ccc(NCCSc6ccccc6)c(C(F)(F)F)c5)nn4)CC3)cc(C(F)(F)F)c2)c1 [Compound B2R088-01, 6-[4-[[3-(5-Ethoxypyridin-3-yl)-5-(trifluoromethyl)phenyl]methyl]piperazin-1-yl]-N-[4-(2-phenylsulfanylethylamino)-3-(trifluoromethyl)phenyl]sulfonylpyridazine-3-carboxamide]
3.4 | −9.2 | CCOc1cccc(-c2cc(CN3CCN(c4ccc(C(=O)NS(=O)(=O)c5ccc(NCCSc6ccccc6)c(C(F)(F)F)c5)nn4)CC3)cc(OC(F)(F)F)c2)c1 [Compound B2R089-01, 6-[4-[[3-(3-Ethoxyphenyl)-5-(trifluoromethoxy)phenyl]methyl]piperazin-1-yl]-N-[4-(2-phenylsulfanylethylamino)-3-(trifluoromethyl)phenyl]sulfonylpyridazine-3-carboxamide]
22.4 | 5.3 | CCOc1cncc(-c2cc(CN3CCN(c4ccc(C(=O)NS(=O)(=O)c5ccc(NCCSc6ccccc6)c(C(F)(F)F)c5)nn4)CC3)cc(OC(F)(F)F)c2)c1 [Compound B2R090-01, 6-[4-[[3-(5-Ethoxypyridin-3-yl)-5-(trifluoromethoxy)phenyl]methyl]piperazin-1-yl]-N-[4-(2-phenylsulfanylethylamino)-3-(trifluoromethyl)phenyl]sulfonylpyridazine-3-carboxamide]
−3.5 | 1.8 | CCOc1cccc(-c2ccc(CN3CCN(c4ccc(C(=O)NS(=O)(=O)c5ccc(NCCSc6ccccc6)c(C(F)(F)F)c5)nn4)CC3)c3ccccc23)c1 [Compound B2R091-01, 6-[4-[[4-(3-Ethoxyphenyl)naphthalen-1-yl]methyl]piperazin-1-yl]-N-[4-(2-phenylsulfanylethylamino)-3-(trifluoromethyl)phenyl]sulfonylpyridazine-3-carboxamide]
16.0 | −1.3 | CCOc1cncc(-c2ccc(CN3CCN(c4ccc(C(=O)NS(=O)(=O)c5ccc(NCCSc6ccccc6)c(C(F)(F)F)c5)nn4)CC3)c3ccccc23)c1 [Compound B2R092-01, 6-[4-[[4-(5-Ethoxypyridin-3-yl)naphthalen-1-yl]methyl]piperazin-1-yl]-N-[4-(2-phenylsulfanylethylamino)-3-(trifluoromethyl)phenyl]sulfonylpyridazine-3-carboxamide]
56.5 | 0.0 | CCOc1cccc(-c2csc(CN3CCN(c4ccc(C(=O)NS(=O)(=O)c5ccc(NCCSc6ccccc6)c(C(F)(F)F)c5)nn4)CC3)c2)c1 [Compound B2R093-01, 6-[4-[[4-(3-Ethoxyphenyl)thiophen-2-yl]methyl]piperazin-1-yl]-N-[4-(2-phenylsulfanylethylamino)-3-(trifluoromethyl)phenyl]sulfonylpyridazine-3-carboxamide]
18.8 | 11.9 | CCOc1cncc(-c2csc(CN3CCN(c4ccc(C(=O)NS(=O)(=O)c5ccc(NCCSc6ccccc6)c(C(F)(F)F)c5)nn4)CC3)c2)c1 [Compound B2R094-01, 6-[4-[[4-(5-Ethoxypyridin-3-yl)thiophen-2-yl]methyl]piperazin-1-yl]-N-[4-(2-phenylsulfanylethylamino)-3-(trifluoromethyl)phenyl]sulfonylpyridazine-3-carboxamide]
42.2 | 5.5 | CCOc1cccc(C#Cc2ccccc2CN2CCN(c3ccc(C(=O)NS(=O)(=O)c4ccc(NCCSc5ccccc5)c(C(F)(F)F)c4)nn3)CC2)c1 [Compound B2R095-01, 6-[4-[[2-[2-(3-Ethoxyphenyl)ethynyl]phenyl]methyl]piperazin-1-yl]-N-[4-(2-phenylsulfanylethylamino)-3-(trifluoromethyl)phenyl]sulfonylpyridazine-3-carboxamide]
6.6 | −7.8 | CCOc1cccc(-c2ccc(C(C)N3CCN(c4ccc(C(=O)NS(=O)(=O)c5ccc(NCCSc6ccccc6)c(C(F)(F)F)c5)cc4)CC3)cc2)c1 (centres unmarked) [Compound B2R097-01, 4-[4-[1-[4-(3-Ethoxyphenyl)phenyl]ethyl]piperazin-1-yl]-N-[4-(2-phenylsulfanylethylamino)-3-(trifluoromethyl)phenyl]sulfonylbenzamide]
9.2 | 7.5 | CCOc1cncc(-c2ccc(C(C)N3CCN(c4ccc(C(=O)NS(=O)(=O)c5ccc(NCCSc6ccccc6)c(C(F)(F)F)c5)cc4)CC3)cc2)c1 (centres unmarked) [Compound B2R098-01, 4-[4-[1-[4-(5-Ethoxypyridin-3-yl)phenyl]ethyl]piperazin-1-yl]-N-[4-(2-phenylsulfanylethylamino)-3-(trifluoromethyl)phenyl]sulfonylbenzamide]
−12.6 | −7.5 | CCOc1cccc(-c2ccc(C(C)N3CCN(c4ccc(C(=O)NS(=O)(=O)c5ccc(NCCSc6ccccc6)c(C(F)(F)F)c5)cc4)CC3)c(F)c2)c1 (centres unmarked) [Compound B2R099-01, 4-[4-[1-[4-(3-Ethoxyphenyl)-2-fluorophenyl]ethyl]piperazin-1-yl]-N-[4-(2-phenylsulfanylethylamino)-3-(trifluoromethyl)phenyl]sulfonylbenzamide]
